Several values for one entry are separate records, joined by “and”; a condition that tells them apart may be missing. Identical values can stand only once. Toxic doses and inconclusive results are not listed. Rule for the calls: active = survival T/C of 150% or more; inactive = T/C below 125% in these data.
Tested on: CD2F1 mice, L1210 leukemia ip, survival T/C
Test: NCI In Vivo Anticancer Drug Screen. Data for tumor model L1210 Leukemia (intraperitoneal) in CD2F1 (CDF1) mice
Conditions: higher = longer survival
Summary of the method: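 Transplantable tumor in mice; compound-treated vs vehicle-treated groups. Read-out = treated/control ratio of the measured endpoint.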

[1] = endpoint: mean survival time, dose: 12.5 mg/kg/injection, schedule: Q01DX009 (ip), vehicle: saline with Tween-80
[2] = endpoint: mean survival time, dose: 25.0 mg/kg/injection, schedule: Q01DX009 (ip), vehicle: saline with Tween-80
[3] = endpoint: mean survival time, dose: 50.0 mg/kg/injection, schedule: Q01DX009 (ip), vehicle: saline with Tween-80
[4] = endpoint: mean survival time, dose: 50.0 mg/kg/injection, schedule: Q01DX009 (ip), vehicle: saline
[5] = endpoint: mean survival time, dose: 100.0 mg/kg/injection, schedule: Q01DX009 (ip), vehicle: saline
[6] = endpoint: mean survival time, dose: 200.0 mg/kg/injection, schedule: Q01DX009 (ip), vehicle: saline
[7] = endpoint: mean survival time, dose: 100.0 mg/kg/injection, schedule: Q04DX003 (ip), vehicle: saline with Tween-80
[8] = endpoint: mean survival time, dose: 200.0 mg/kg/injection, schedule: Q04DX003 (ip), vehicle: saline with Tween-80
[9] = endpoint: mean survival time, dose: 400.0 mg/kg/injection, schedule: Q04DX003 (ip), vehicle: saline with Tween-80
[10] = endpoint: mean survival time, dose: 100.0 mg/kg/injection, schedule: Q01DX009 (ip), vehicle: saline with Tween-80
[11] = endpoint: mean survival time, dose: 200.0 mg/kg/injection, schedule: Q01DX009 (ip), vehicle: saline with Tween-80
[12] = endpoint: mean survival time, dose: 400.0 mg/kg/injection, schedule: Q01DX009 (ip), vehicle: saline with Tween-80

Measured: T/C

Cc1cc(C)[nH]c(=O)n1
inactive: endpoint: mean survival time, dose: 100.0 mg/kg/injection, schedule: Q04DX003 (ip), vehicle: saline 94 % of control | endpoint: mean survival time, dose: 200.0 mg/kg/injection, schedule: Q04DX003 (ip), vehicle: saline 102 % of control | endpoint: mean survival time, dose: 400.0 mg/kg/injection, schedule: Q04DX003 (ip), vehicle: saline 94 % of control

CCCCN1C(=O)C(=O)N(c2cc(Cl)c(OC)cc2OC)C1=O
inactive: [1] 103 % of control | [2] 88 % of control | [3] 93 % of control and 96 % of control

COCCCN=C(N)N
inactive: [4] 102 % of control | [5] 105 % of control | [6] 96 % of control

N=C(N=c1cc(C(=O)NC(=N)NC(=N)Nc2ccc(Cl)cc2)n(C(=N)NC(=N)Nc2ccc(Cl)cc2)c(C(=O)NC(=N)NC(=N)Nc2ccc(Cl)cc2)c1)NC(=N)Nc1ccc(Cl)cc1
inactive: [7] 98 % of control | [8] 100 % of control | [9] 100 % of control

COC(=O)C(OC)c1ccc2ccccc2c1 (stereo not given)
inactive: endpoint: mean survival time, dose: 100.0 mg/kg/injection, schedule: Q04DX002 (ip), vehicle: saline with Tween-80 98 % of control | endpoint: mean survival time, dose: 200.0 mg/kg/injection, schedule: Q04DX002 (ip), vehicle: saline with Tween-80 98 % of control | endpoint: mean survival time, dose: 400.0 mg/kg/injection, schedule: Q04DX002 (ip), vehicle: saline with Tween-80 102 % of control

O=C(CNC(=O)Nc1cccc(C(F)(F)F)c1)N/N=C/c1ccccc1O
inactive: [1] 95 % of control | [2] 87 % of control | [3] 88 % of control | [10] 100 % of control | [11] 103 % of control

C#CC[N+](CCO)(CCO)CCCCCCCCCCCCCCCCCC
inactive: endpoint: mean survival time, dose: 12.5 mg/kg/injection, schedule: Q04DX002 (ip), vehicle: saline with Tween-80 101 % of control | endpoint: mean survival time, dose: 25.0 mg/kg/injection, schedule: Q04DX002 (ip), vehicle: saline with Tween-80 101 % of control | endpoint: mean survival time, dose: 50.0 mg/kg/injection, schedule: Q04DX002 (ip), vehicle: saline with Tween-80 101 % of control

CC1(C)CCC(CC(=O)O)(CC(=O)O)CC1
inactive: [10] 105 % of control | [11] 104 % of control | [12] 104 % of control

CCOc1cccc(Cl)n1
inactive: [10] 94 % of control | [7] 101 % of control | [11] 102 % of control | [8] 98 % of control | [9] 98 % of control

C/C=C\c1ccc(OCCOC(=O)Nc2ccc(Cl)cc2OC)c(OC)c1
inactive: [3] 89 % of control | [10] 89 % of control | [11] 93 % of control

O=C(O)C(=O)O.[NH-]CC(O)CN(CC(O)CO)c1ccccc1.[Pt+2] (stereo not given)
inactive: endpoint: median survival time, dose: 10.0 mg/kg/injection, schedule: Q04DX003 (ip), vehicle: distilled water + Tween-80 100 % of control | endpoint: median survival time, dose: 20.0 mg/kg/injection, schedule: Q04DX003 (ip), vehicle: distilled water + Tween-80 98 % of control | endpoint: median survival time, dose: 40.0 mg/kg/injection, schedule: Q04DX003 (ip), vehicle: distilled water + Tween-80 101 % of control | endpoint: median survival time, dose: 80.0 mg/kg/injection, schedule: Q04DX003 (ip), vehicle: distilled water + Tween-80 102 % of control

NC(CSC(c1ccccc1)(c1ccccc1)c1ccc(-c2ccccc2)cc1)C(=O)O (stereo not given)
inactive: [4] 111 % of control | [5] 108 % of control | [6] 105 % of control | endpoint: mean survival time, dose: 400.0 mg/kg/injection, schedule: Q01DX009 (ip), vehicle: saline 100 % of control

Cc1cc(C)c(CC=O)c(C)c1
inactive: endpoint: median survival time, dose: 25.0 mg/kg/injection, schedule: Q04DX002 (ip), vehicle: saline with Tween-80 100 % of control | endpoint: median survival time, dose: 50.0 mg/kg/injection, schedule: Q04DX002 (ip), vehicle: saline with Tween-80 100 % of control | endpoint: median survival time, dose: 100.0 mg/kg/injection, schedule: Q04DX002 (ip), vehicle: saline with Tween-80 100 % of control | endpoint: median survival time, dose: 200.0 mg/kg/injection, schedule: Q04DX002 (ip), vehicle: saline with Tween-80 100 % of control

c1ccc2c(c1)nnn2-c1ccncc1
inactive: [7] 91 % of control | [8] 104 % of control

NC(=O)Cn1cnnn1
inactive: endpoint: mean survival time, dose: 100.0 mg/kg/injection, schedule: Q01DX001 (ip), vehicle: saline with Tween-80 102 % of control | [10] 98 % of control | [7] 101 % of control | endpoint: mean survival time, dose: 200.0 mg/kg/injection, schedule: Q01DX001 (ip), vehicle: saline with Tween-80 100 % of control | [11] 101 % of control | [8] 95 % of control | endpoint: mean survival time, dose: 400.0 mg/kg/injection, schedule: Q01DX001 (ip), vehicle: saline with Tween-80 96 % of control | [12] 98 % of control | [9] 95 % of control

Nc1ccccc1C1=Nc2cncnc2NC1
inactive: endpoint: mean survival time, dose: 75.0 mg/kg/injection, schedule: Q01DX001 (ip), vehicle: saline 104 % of control | endpoint: mean survival time, dose: 150.0 mg/kg/injection, schedule: Q01DX001 (ip), vehicle: saline 102 % of control | endpoint: mean survival time, dose: 300.0 mg/kg/injection, schedule: Q01DX001 (ip), vehicle: saline 93 % of control

Source: PubChem BioAssay AID256 (DTP/NCI, 2004)
